Tested on: 3T3-L1 adipocytes
Assay: Glucose uptake activity assay (2-deoxy-D-[3H]glucose uptake)
Format: cell-based
Conditions: 12-well plates, 15 min incubation, FIG. 1
Description: Glucose uptake activity assay. Glucose uptake activity was analyzed by measuring the uptake of 2-deoxy-D-[^3H] glucose as described previously (Sakoda, H, et al. (1999) Diabetes 48: 1365-1371; Garcia de Herreros, A. & Birnbaum, M. J. (1989) J. Biol. Chem. 264: 19994-19999). Briefly, confluent 3T3-L1 adipocytes grown in 12-well plates were washed twice with serum-free DMEM and incubated with 1 mL of the same medium at 37° C. for 2 h. The cells were washed 3 times with Krebs-Ringer-Hepes (KRP) buffer and incubated with 0.9 mL KRP buffer at 37° C. for 30 min. Insulin and/or BE were then added and adipocytes were incubated at 37° C. for 15 min. Glucose uptake was initiated by the addition of 0.1 ml, KRP buffer and 3.7×10^7 Bq/L 2-deoxy-D-[^3H] glucose and 1 mmol/L glucose as final concentrations. After 10 min, glucose uptake was terminated by washing the cells 3 times with cold PBS. The cells were lysed with 0.7 mL of 1% Triton X-100 at 37° C. for 20 min. The radioactivity retained by the cell lysates was determined by a scintillation counter. Nonspecific glucose uptake was measured at a glucose concentration of 100 mmol/L. Assay data were statistically analyzed using the paired Student's t-test, with P<0.05 set as the significant difference level.

insulin: Bovine insulin from Sigma Chemical, positive control
stimulation of glucose uptake in 3T3-L1 adipocytes: could stimulate glucose uptake
